According to PubChem BioAssay (NCI):
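How tested: cells in 96-well plates exposed to compound for 48 hours at five concentrations. TGI is the concentration that stops growth completely.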

Key:
Assay in all cases: NCI tumour cell line growth inhibition, 48 h
[1] = test system: MOLT-4 leukemia
[2] = test system: EKVX NSCLC
[3] = test system: CAKI-1 renal
[4] = test system: BT-549 breast
[5] = test system: A549 NSCLC
[6] = test system: NCI-H226 lung
[7] = test system: HCT-116 colon
[8] = test system: RXF 393 renal
[9] = test system: SN12C renal
[10] = test system: HCT-15 colon
[11] = test system: DU-145 prostate
[12] = test system: HT29 colon
[13] = test system: COLO 205 colon
[14] = test system: PC-3 prostate
[15] = test system: MCF7 breast
[16] = test system: A498 renal
[17] = test system: MDA-MB-435
[18] = test system: SR leukemia
[19] = test system: HOP-62 NSCLC
[20] = test system: UACC-62 melanoma
[21] = test system: SK-MEL-5 melanoma
[22] = test system: NCI-H522 lung
[23] = test system: HS 578T breast
[24] = test system: MDA-MB-231 breast
[25] = test system: T-47D breast
[26] = test system: NCI/ADR-RES ovarian
[27] = test system: LOX IMVI melanoma
[28] = test system: OVCAR-4 ovarian
[29] = test system: K-562 leukemia
[30] = test system: UACC-257 melanoma
[31] = test system: SNB-75 CNS
[32] = test system: 786-0 renal
[33] = test system: OVCAR-8 ovarian
[34] = test system: TK-10 renal
[35] = test system: UO-31 renal
[36] = test system: HCC-2998 colon
[37] = test system: SK-OV-3 ovarian
[38] = test system: U251 CNS
[39] = test system: SK-MEL-2 melanoma
[40] = test system: OVCAR-3 ovarian
[41] = test system: MDA-N
[42] = test system: SF-268 CNS
[43] = test system: SF-539 CNS
[44] = test system: M14 melanoma
[45] = test system: SW-620 colon
[46] = test system: SF-295 CNS
[47] = test system: OVCAR-5 ovarian
[48] = test system: NCI-H23 lung
[49] = test system: ACHN renal
[50] = test system: IGROV1 ovarian
[51] = test system: KM12 colon
[52] = test system: SK-MEL-28 melanoma
[53] = test system: CCRF-CEM leukemia
[54] = test system: HOP-92 NSCLC
[55] = test system: NCI-H460 lung
[56] = test system: HL-60(TB) leukemia
[57] = test system: SNB-19 CNS
[58] = test system: MALME-3M melanoma
[59] = test system: RPMI-8226 leukemia

In the case of `Cc1c(C(=O)O)n2c(C)nnc2c2ccccc12`, the TGI [1] is reported as greater than 100 µM, the TGI [2] is reported as greater than 100 µM and the TGI [3] is reported as greater than 100 µM. It also gave a TGI [4] greater than 100 µM, a TGI [5] greater than 100 µM and a TGI [6] greater than 100 µM. It also gave a TGI [7] greater than 100 µM, a TGI [8] greater than 100 µM and a TGI [9] greater than 100 µM. For the same compound, the TGI [10] was greater than 100 µM, the TGI [11] was greater than 100 µM and the TGI [12] was greater than 100 µM. For the same compound, the TGI [13] was greater than 100 µM, the TGI [14] was greater than 100 µM and the TGI [15] was greater than 100 µM. It also gave a TGI [16] greater than 100 µM, a TGI [17] greater than 100 µM and a TGI [18] greater than 100 µM. The TGI [19] was greater than 100 µM, the TGI [20] was greater than 100 µM and the TGI [21] was greater than 100 µM. For the same compound, the TGI [22] was greater than 100 µM, the TGI [23] was greater than 100 µM and the TGI [24] was greater than 100 µM. The TGI [25] was greater than 100 µM, the TGI [26] was greater than 100 µM and the TGI [27] was greater than 100 µM. The TGI [28] was greater than 100 µM, the TGI [29] was greater than 100 µM and the TGI [30] was greater than 100 µM. It also gave a TGI [31] greater than 100 µM, a TGI [32] greater than 100 µM and a TGI [33] greater than 100 µM. The TGI [34] was greater than 100 µM, the TGI [35] was greater than 100 µM and the TGI [36] was greater than 100 µM. It also gave a TGI [37] greater than 100 µM, a TGI [38] greater than 100 µM and a TGI [39] greater than 100 µM. The TGI [40] was greater than 100 µM, the TGI [41] was greater than 100 µM and the TGI [42] was greater than 100 µM. It also gave a TGI [43] greater than 100 µM, a TGI [44] greater than 100 µM and a TGI [45] greater than 100 µM. It also gave a TGI [46] greater than 100 µM, a TGI [47] greater than 100 µM and a TGI [48] greater than 100 µM. It also gave a TGI [49] greater than 100 µM, a TGI [50] greater than 100 µM and a TGI [51] greater than 100 µM. The TGI [52] was greater than 100 µM, the TGI [53] was greater than 100 µM and the TGI [54] was greater than 100 µM. For the same compound, the TGI [55] was greater than 100 µM.
Work on `CCN=c1nc2sc3c(c2c(NC(=S)NCC)s1)CCN(N1CCc2c(sc4nc(=NCC)sc(NC(=S)NCC)c24)C1)C3` yielded a TGI [1] greater than 100 µM, a TGI [2] greater than 100 µM and a TGI [3] greater than 100 µM. The TGI [4] was greater than 100 µM, the TGI [5] was greater than 100 µM and the TGI [6] was greater than 100 µM. The TGI [7] was 52.3 µM, the TGI [8] was 53.2 µM and the TGI [9] was greater than 100 µM. It also gave a TGI [10] greater than 100 µM, a TGI [11] greater than 100 µM and a TGI [12] greater than 100 µM. The TGI [13] was greater than 100 µM, the TGI [56] was greater than 100 µM and the TGI [14] was greater than 100 µM. The TGI [15] was greater than 100 µM, the TGI [16] was greater than 100 µM and the TGI [17] was greater than 100 µM. The TGI [18] was greater than 100 µM, the TGI [19] was greater than 100 µM and the TGI [20] was greater than 100 µM. The TGI [21] was greater than 100 µM, the TGI [22] was greater than 100 µM and the TGI [23] was greater than 100 µM. The TGI [24] was 82.6 µM, the TGI [25] was greater than 100 µM and the TGI [26] was greater than 100 µM. The TGI [27] was greater than 100 µM, the TGI [28] was greater than 100 µM and the TGI [29] was greater than 100 µM. It also gave a TGI [30] greater than 100 µM, a TGI [31] greater than 100 µM and a TGI [32] greater than 100 µM. The TGI [33] was greater than 100 µM, the TGI [34] was greater than 100 µM and the TGI [35] was greater than 100 µM. It also gave a TGI [57] greater than 100 µM, a TGI [36] greater than 100 µM and a TGI [37] greater than 100 µM. The TGI [38] was greater than 100 µM, the TGI [39] was greater than 100 µM and the TGI [40] was greater than 100 µM. The TGI [41] was greater than 100 µM, the TGI [42] was greater than 100 µM and the TGI [43] was 39.5 µM. For the same compound, the TGI [44] was greater than 100 µM, the TGI [45] was greater than 100 µM and the TGI [58] was greater than 100 µM. For the same compound, the TGI [46] was greater than 100 µM, the TGI [47] was greater than 100 µM and the TGI [48] was greater than 100 µM. It also gave a TGI [49] greater than 100 µM, a TGI [50] greater than 100 µM and a TGI [51] greater than 100 µM. For the same compound, the TGI [52] was greater than 100 µM, the TGI [53] was greater than 100 µM and the TGI [54] was 84.7 µM. It also gave a TGI [55] greater than 100 µM.
For `O=c1c(=O)c2cscc2c1=O`, the TGI [1] was 10 µM, the TGI [2] was 10.7 µM and the TGI [3] was 8.49 µM. For the same compound, the TGI [4] was 8.72 µM, the TGI [5] was greater than 25 µM and the TGI [6] was 10.5 µM. The TGI [7] was 9.66 µM, the TGI [8] was 9.2 µM and the TGI [9] was 13.3 µM. It also gave a TGI [10] of 14.1 µM, a TGI [11] of 11.4 µM and a TGI [12] of 10.6 µM. The TGI [13] was 8.61 µM, the TGI [14] was 8.6 µM and the TGI [15] was 15.3 µM. The TGI [16] was greater than 25 µM, the TGI [17] was 9.85 µM and the TGI [18] was 1.1 µM. For the same compound, the TGI [19] was 10.8 µM, the TGI [20] was 8.75 µM and the TGI [21] was 7.89 µM. For the same compound, the TGI [23] was greater than 25 µM, the TGI [24] was 10 µM and the TGI [25] was 11.8 µM. The TGI [26] was greater than 25 µM, the TGI [27] was 10 µM and the TGI [28] was 11.1 µM. For the same compound, the TGI [29] was 6.5 µM, the TGI [59] was 12.1 µM and the TGI [30] was 7.96 µM. It also gave a TGI [31] of 8.37 µM, a TGI [32] of 10.1 µM and a TGI [33] of 16.4 µM. It also gave a TGI [34] of 8.04 µM, a TGI [35] of 9.6 µM and a TGI [57] of 15.2 µM. For the same compound, the TGI [36] was 6.44 µM, the TGI [37] was greater than 25 µM and the TGI [38] was 9.19 µM. The TGI [39] was 9.31 µM, the TGI [40] was 15.1 µM and the TGI [41] was 9.72 µM. For the same compound, the TGI [42] was 8.82 µM, the TGI [43] was 9.07 µM and the TGI [44] was 8.85 µM. The TGI [45] was 11.2 µM, the TGI [58] was 8.39 µM and the TGI [46] was greater than 25 µM. For the same compound, the TGI [47] was 9.61 µM, the TGI [48] was 12.3 µM and the TGI [49] was 8.37 µM. It also gave a TGI [50] of 8.4 µM, a TGI [51] of 12.7 µM and a TGI [52] of 9.37 µM. It also gave a TGI [54] of 11.2 µM and a TGI [55] of 23.3 µM.
